Converted amounts (≈) assume the structure as drawn.
Legend:
[1] = system: Vancomycin-resistant E. faecalis ATCC 51299; test: MIC, CLSI broth dilution susceptibility assay; assay type: cell-based, Enterococcus faecalis
Protocol: (§1) The compounds were assayed against Gram-positive bacteria Staphylococcus aureus (Sa), methicillin-resistant Sa (MRSA), Enterococcus faecalis, and Vancomycin-resistant E. faecalis; the Gram-negative bacteria Escherichia coli and Pseudomonas aeruginosa; and the fungi Candida albicans and Amphotericin B-resistant C. albicans.
(§2) The growth conditions were adapted from the CLSI protocols for broth dilution susceptibility assays. A culture of S. aureus ATCC 29213 was diluted with MHII broth to an inoculum of—5×10^5 CFU/mL. Cultures were grown in 100 μL in round-bottom 96-well plates with increasing concentrations of test or control compound. Plates were gently rocked at 37° C. overnight and then 50 μL of each culture was spread onto TSA plates without antibiotic. The plates were incubated at 37° C. overnight and then examined for bacterial growth. Similarly, an inoculum of C. albicans ATCC 28517 or C. auris ATCC MYA-5001 was prepared in RPMI-1640 with 165 mM MOPS at 0.5×10^3-2.5×10^3 CFU/mL. Cultures were grown in 200 μL in round-bottom 96-well plates with increasing concentrations of test or control compound. Plates were gently rocked at 35° C. overnight and then 50 μL of each culture was spread onto Sabouraud dextrose agar (SDA) plates without compound. The plates were incubated at 35° C. overnight and then examined for fungal growth.

[2] = system: Staphylococcus aureus (Sa) ATCC 29213; test: MIC, CLSI broth dilution susceptibility assay; assay type: cell-based; conditions: for Minimum Inhibitory Concentration (MIC): Staphylococcus aureus ATCC 29213
Protocol: as §1, §2

[3] = system: Candida albicans ATCC 28517; test: MIC, CLSI broth dilution susceptibility assay; assay type: cell-based; conditions: for Minimum Inhibitory Concentration (MIC): Candida albicans ATCC 28517
Protocol: as §1, §2

[4] = system: Enterococcus faecalis ATCC 29212; test: MIC, CLSI broth dilution susceptibility assay; assay type: cell-based; conditions: for Minimum Inhibitory Concentration (MIC): Enterococcus faecalis ATCC 29212
Protocol: as §1, §2

[5] = system: Pseudomonas aeruginosa ATCC 27853; test: MIC, CLSI broth dilution susceptibility assay; assay type: cell-based
Protocol: as §1, §2

[6] = system: Candida auris ATCC MYA-5001; test: MIC, CLSI broth dilution susceptibility assay; assay type: cell-based; conditions: for Minimum Inhibitory Concentration (MIC): Candida auris ATCC MYA-5001
Protocol: as §1, §2

[7] = system: Escherichia coli ATCC 25922; test: MIC, CLSI broth dilution susceptibility assay; assay type: cell-based
Protocol: as §1, §2

[8] = system: Amphotericin B-resistant C. albicans ATCC 200955; assay type: cell-based
Protocol: as §1, §2

[9] = system: MRSA, methicillin-resistant Sa ATCC 43300; test: MIC, CLSI broth dilution susceptibility assay; assay type: cell-based, Staphylococcus aureus; conditions: for Minimum Inhibitory Concentration (MIC): MRSA ATCC 43300
Protocol: as §1, §2

[10] = system: S. aureus ATCC 29213; test: Bactericidal activity: broth cultures with compound plated onto TSA without antibiotic; assay type: cell-based, Staphylococcus aureus; conditions: for MIC: Staphylococcus aureus, ATCC29213
Protocol: as §2
(§3) After treatment with concentrations of compound 2 at or nearing the MIC, no viable organism could be recovered.
(§4) FIG. 19-20 show bactericidal and fungicidal activities of compound 2. FIG. 19A-C show the bactericidal activity of compound 2 against S. aureus ATCC 29213. […] FIG. 20A-B show the fungicidal activity of compound 2.

[11] = system: C. albicans ATCC 28517; test: Fungicidal activity: broth cultures with compound plated onto SDA without compound; assay type: cell-based, Candida albicans
Protocol: as §2, §3, §4

[12] = system: Amycolatopsis glycosyltransferase; test: Glycosyltransferase assay (substrate specificity); assay type: biochemical, Amycolatopsis sp. F10; conditions: PBS, 500 μM UDP-glucose, 100 μM substrate, 30° C., 2 to 30 min; HPLC UV 254 nm or MS
Protocol: Glycosyltransferase expression vector cloning: An expression vector pET28b-gt was constructed by cloning the glycosyltransferase gene into pET28b (Novagen) with a C-terminal 6-His tag using the NEBuilder HiFi DNA Assembly kit (New England Biolabs). The glycosyltransferase gene was PCR amplified from F10 genomic DNA with primers that appended 5′ and 3′ overhangs homologous to the pET28b multiple cloning site. The linearized pET28b vector was prepared by restriction enzyme digestion with NcoI and XhoI. After cloning and confirmation by Sanger sequencing, pET28b-gt was transformed into E. coli BL21(DE3) for protein expression. The expression vector pET28b-gt-H15A was created from pET28b-gt with site-directed mutagenesis using overlapping primers and the QuikChange II kit.
Glycosyltransferase recombinant protein purification: An overnight culture of the glycosyltransferase expression strain in Luria-Bertani broth (LB) was used to inoculate 2 L LB with a 1:100 dilution (v/v). The culture was grown at 37° C. to OD600=0.5-0.7 and 0.1 mM isopropyl β-d-1-thiogalactopyranoside (IPTG) was added to induce protein expression for 4 hours. Cells were harvested by centrifugation, suspended in 20 mL phosphate-buffered saline (PBS) and stored at −80° C. For purification, the cells were thawed, lysed (lysozyme, DNase, MgCl2, phenylmethylsulfonyl fluoride (PMSF), and sonication), and cellular debris was removed by centrifugation. The glycosyltransferase was purified from the clarified lysate in two chromatographic steps on an AKTA Pure 25 FPLC. […] The eluted fractions containing the glycosyltransferase were confirmed by SDS-PAGE, pooled, and concentrated and buffer exchanged to remove imidazole in a 10000 Da MW centrigual filter device. The sample was run on a HiLoad Superdex 75 pg 16/600 size exclusion column with 50 mM HEPES pH 6.8/50 mM NaCl/10% glycerol. Protein purity was confirmed by SDS-PAGE. The purified glycosyltransferase was concentrated and flash frozen in aliquots at […]. […]

[13] = system: C. auris ATCC MYA-5001; test: Fungicidal activity: broth cultures with compound plated onto SDA without compound; assay type: cell-based, Candida auris
Protocol: as §2, §3, §4

[14] = S. aureus ATCC 29213, FIG. 19 bactericidal experiment
[15] = at or nearing the MIC no viable organism could be recovered

`CC/C=C/C=C/C=C/C(O)CC1(O)OC(CC(O)C(O)C(O)C(O)C(O)C(C)C(O)C(C)C(O)CC(O)CC(O)CC(O)C(C)C(O)C(C)C(O)C(C)C(O)C(CC(C)CC(C)/C=C(C)/C(O)=C2/C(=O)C(C)N(C)C2=O)OC2OC(CO)C(O)C(O)C2O)C(O)C(O)C1O` (stereo not shown) [Compound 1] was tested, and the “Minimum Inhibitory Concentration (MIC)” value [1] was greater than 128 micrograms/mL, the “Minimum Inhibitory Concentration (MIC)” value [2] was greater than 128 micrograms/mL and the “Minimum Inhibitory Concentration (MIC)” value [3] was greater than 128 micrograms/mL. For the same compound, the “Minimum Inhibitory Concentration (MIC)” value [4] was greater than 128 micrograms/mL, the “Minimum Inhibitory Concentration (MIC)” value [5] was greater than 128 micrograms/mL and the “Minimum Inhibitory Concentration (MIC)” value [6] was greater than 128 micrograms/mL. For the same compound, the “Minimum Inhibitory Concentration (MIC)” value [7] was greater than 128 micrograms/mL, the “Minimum Inhibitory Concentration (MIC)” value [8] was greater than 128 micrograms/mL and the “Minimum Inhibitory Concentration (MIC)” value [9] was greater than 128 micrograms/mL.
For `CC/C=C/C=C/C=C/C(O)CC1(O)OC(CC(O)C(O)C(O)C(O)C(O)C(C)C(O)C(C)C(O)CC(O)CC(O)CC(O)C(C)C(O)C(C)C(O)C(C)C(O)C(O)CC(C)CC(C)/C=C(C)/C(O)=C2/C(=O)C(C)N(C)C2=O)C(O)C(O)C1O` (stereo not shown) [Compound 2], the “Minimum Inhibitory Concentration (MIC)” value [1] was 8 micrograms/mL, the “Minimum Inhibitory Concentration (MIC)” value [2] was 2 micrograms/mL and the “Minimum Inhibitory Concentration (MIC)” value [3] was 8 micrograms/mL. The “Minimum Inhibitory Concentration (MIC)” value [4] was 8 micrograms/mL, the “Minimum Inhibitory Concentration (MIC)” value [5] was greater than 128 micrograms/mL and the “Minimum Inhibitory Concentration (MIC)” value [6] was 16 micrograms/mL. For the same compound, the “Minimum Inhibitory Concentration (MIC)” value [7] was greater than 128 micrograms/mL, the “MIC in the experiment” value [10, 14] was 2 µg/mL (≈ 1.67 µM) and the “Mode of action against S. aureus (bactericidal)” value [10, 15] was “bactericidal”. For the same compound, the “MIC in the experiment” value ([11]; C. albicans ATCC 28517, FIG. 20A fungicidal experiment) was 8 µg/mL (≈ 6.7 µM), the “Mode of action against C. albicans (fungicidal)” value [11, 15] was “fungicidal” and the “Minimum Inhibitory Concentration (MIC)” value [8] was 8 micrograms/mL. The “Glycosyltransferase activity on the substance as substrate” value (shortened to “Glycosyltransferase activity”) [12] was “complete conversion”, the “MIC in the experiment” value ([13]; C. auris ATCC MYA-5001, FIG. 20B fungicidal experiment) was 16 µg/mL (≈ 13.4 µM) and the “Mode of action against C. auris (fungicidal)” value [13, 15] was “fungicidal”. The “Minimum Inhibitory Concentration (MIC)” value [9] was 2 micrograms/mL.
With `Cc1onc(-c2ccccc2)c1C(=O)N[C@@H]1C(=O)N2[C@@H]1SC(C)(C)[C@@H]2C(=O)O` [oxacillin, reference compound] the “MIC, antibiotic control” value ([2]; S. aureus, footnote control) was “S. aureus: oxacillin = 0.25-0.5 ug/mL” and the MIC [10, 14] was 2 µg/mL (≈ 4.98 µM).
With `CN[C@H](CC(C)C)C(=O)N[C@H]1C(=O)N[C@@H](CC(N)=O)C(=O)N[C@H]2C(=O)N[C@H]3C(=O)N[C@H](C(=O)N[C@H](C(=O)O)c4cc(O)cc(O)c4-c4cc3ccc4O)[C@H](O)c3ccc(c(Cl)c3)Oc3cc2cc(c3O[C@@H]2O[C@H](CO)[C@@H](O)[C@H](O)[C@H]2O[C@H]2C[C@](C)(N)[C@H](O)[C@H](C)O2)Oc2ccc(cc2Cl)[C@H]1O` [vancomycin, reference compound] the “MIC, antibiotic control” value ([4]; E. faecalis, footnote control) was “E. faecalis: vancomycin = 2 ug/mL” and the “MIC, antibiotic control” value ([9]; MRSA, footnote control) was “MRSA: vancomycin = 0.5-1 ug/mL”.
In the case of `CC[C@H]1OC(=O)C[C@@H](O)[C@H](C)[C@@H](O[C@@H]2O[C@H](C)[C@@H](O[C@H]3C[C@@](C)(O)[C@@H](O)[C@H](C)O3)[C@H](N(C)C)[C@H]2O)[C@@H](CC=O)C[C@@H](C)C(=O)/C=C/C(C)=C/[C@@H]1CO[C@@H]1O[C@H](C)[C@@H](O)[C@@H](OC)[C@H]1OC` [tylosin], the “Glycosyltransferase activity” value [12] is reported as “no activity”.
`O=C(N[C@H](CO)[C@H](O)c1ccc([N+](=O)[O-])cc1)C(Cl)Cl` [chloramphenicol, reference compound] gave an MIC [10, 14] of 8 µg/mL (≈ 24.8 µM).
`C[C@@H]1[C@H](O)[C@@H](C)/C=C/C=C/C=C/C=C/C=C/C=C/C=C/[C@H](O[C@@H]2O[C@H](C)[C@@H](O)[C@H](N)[C@@H]2O)C[C@@H]2O[C@](O)(C[C@@H](O)C[C@@H](O)[C@H](O)CC[C@@H](O)C[C@@H](O)CC(=O)O[C@H]1C)C[C@H](O)[C@H]2C(=O)O` [amphotericin B, reference compound] was tested, and the “MIC, antibiotic control” value ([3]; C. albicans, footnote control) was “C. albicans: amphotericin B = 2 ug/mL”.
For `CC[C@H]1OC(=O)[C@H](C)[C@@H](O[C@H]2C[C@@](C)(OC)[C@@H](O)[C@H](C)O2)[C@H](C)[C@@H](O[C@@H]2O[C@H](C)C[C@H](N(C)C)[C@H]2O)[C@](C)(O)C[C@@H](C)C(=O)[C@H](C)[C@@H](O)[C@]1(C)O` [erythromycin], the “Glycosyltransferase activity” value [12] was “no activity”.
For `OC(Cn1cncn1)(Cn1cncn1)c1ccc(F)cc1F` [fluconazole, reference compound], the “MIC, antibiotic control” value ([6]; C. auris, footnote control) was “C. auris: fluconazole = 1 ug/mL”.
